Measured values published in patent publication US20170273307A1, “SILANE-BASED ANTIMICROBIAL COATINGS AND METHODS OF MAKING AND USING THE SAME” (Trent University, priority 2016, published 2017).

Assay: Hydrolysis study of the silane by 1H NMR in D2O
Assay type: physicochemical
Experimental: Hydrolysis of the antimicrobial silanes to activate their surface bonding, an essential step in the coating process, were examined by ^1H NMR in D2O. In a typical experiment, approximately 10 mg of the trimethoxy-hydantoin containing silane was added to D2O and the first was acquired within 2 minutes of the addition. The evolution of methanol with time was measured by acquisition of subsequent incremental spectra on the same sample. Due to the limited solubility of these compounds in water, the amount of methanol hydrolysis product detected, in relation to an internal standard (residual H2O in D2O) was used.
Hydrolysis of the modified alkyloxysilanes is important for their reactivity and adhesion to surfaces. Knowing the rate of hydrolysis allows control over the mixing time and catalyst/acid content required before a coating will optimally bind to a substrate. To better understand the mechanisms of hydrolysis, a simple method of placing the silane in a solvent, such as D2O (deuterated water), and look for a characteristic methanol peak in NMR analysis, which will occur when the methanol is cleaved off by the hydrolysis from the D2O. […] After 2 minutes (the fastest the sample could be analyzed on NMR after mixing), a sharp, distinct methanol peak appears at 3.34 ppm (FIG. 4).

## CO[Si](CCCn1cc(CN2C(=O)NC(C)(C)C2=O)nn1)(OC)OC [the silane]
Approximately 10 mg in D2O
  solubility in D2O: not completely soluble
In D2O, after 2 minutes
  integration value of methanol peak (3.34 ppm) compared with D2O set as 1: 0.24
In D2O, spectra recorded every 2 minutes
  time to plateau of methanol peak integration: 10 min
In D2O, uncatalysed, methanol release by 1H NMR
  time to nearly complete hydrolysis: less than 2 minutes
